Our source for the remaining activity and IC50 values is patent US20120115852A1, “HETEROCYCLIC COMPOUNDS AS AUTOTAXIN INHIBITORS” (Merck Patent Gesellschaft Mit Beschrankter Haftung, priority 2009, published 2012).

The test has as its target T1, recombinant autotaxin (Homo sapiens, UniProt Q13822).
T1 construct: made in house; host or cells: Hi5 insect cells (baculovirus)
Nature of the test: Autotaxin test (enzyme test), Amplex Red fluorescence with LPC substrate. In kind it is biochemical. The following applies: autotaxin inhibition (enzyme test); for remaining activity at 10 µM: 10 μM compound, read-out: % Control at 10 μM. The method in brief:
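Activity was inferred from H2O2 made from released choline, detected as Amplex Red/peroxidase fluorescence (485 nm excitation, 612 nm emission, kinetic read). Beforehand, Hi5-expressed autotaxin sat with compound 30 min at 22° C, then hydrolysed 75 μM final LPC for 90 min at 37° C, pH 8 Tris buffer.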

On to `CN1CCN(C(=O)CN2C(=O)C3CN(C(=O)CC(C)(C)C)CCN3C(=O)c3cc(-c4ccc(Cl)cc4F)ccc32)CC1` (stereo not shown) [Compound A144], for which the remaining activity at 10 µM came to 11% and the IC50 was above 1000 nM.
For the molecule `CC(C)(C(=O)N1CCN2C(=O)c3cc(-c4ccc(Cl)cc4)ccc3NC(=O)C2C1)c1ccccc1` (stereo not shown) [Compound A46, 7-(4-Chlorophenyl)-2-(2-methyl-2-phenylpropionyl)-1,3,4,11a-tetrahydro-2H,10H-2,4a,10-triaza-dibenzo[a,d]cycloheptene-5,11-dione], the IC50 was above 1000 nM.
Regarding `O=C1Nc2ccc(-c3cccs3)cc2C(=O)N2CCN(C(=O)CO)C[C@H]12` [Compound A8, (R)-2-(2-Hydroxyacetyl)-7-thiophen-2-yl-1,3,4,11a-tetrahydro-2H,10H-2,4a,10-triazadibenzo[a,d]-cycloheptene-5,11-dione], the remaining activity at 10 µM was 67%.
